Reference: patent US20260015350A1, “AZAQUINAZOLINE PAN-KRAS INHIBITORS” (Mirati Therapeutics, Inc., priority 2022, published 2026)

Experiments:
KRas^G12D = target: T1, KRas^G12D (Homo sapiens, UniProt P01116, G12D); experiment: KRas binding assay (TR-FRET tracer displacement), KRas G12D
T1 construct: Biotinylated KRas (corresponding to amino acids 1-169, produced at Accelegan Inc.); biotin (biotinylated); purchased Accelegan Inc

KRas^G12R = target: T2, KRas^G12R (Homo sapiens, UniProt P01116, G12R); experiment: KRas binding assay (TR-FRET tracer displacement), KRas G12R
T2 construct: Biotinylated KRas (corresponding to amino acids 1-169, produced at Accelegan Inc.); biotin (biotinylated); purchased Accelegan Inc
T2 sequence (P01116 1-169 isoform P01116-2 G12R): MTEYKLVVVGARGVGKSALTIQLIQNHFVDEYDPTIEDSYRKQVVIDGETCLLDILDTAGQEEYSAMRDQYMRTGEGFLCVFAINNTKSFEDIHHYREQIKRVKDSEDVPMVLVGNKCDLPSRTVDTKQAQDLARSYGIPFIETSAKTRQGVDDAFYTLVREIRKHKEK

KRas^G12V = target: T3, KRas^G12V (Homo sapiens, UniProt P01116, G12V); experiment: KRas binding assay (TR-FRET tracer displacement), KRas G12V
T3 construct: Biotinylated KRas (corresponding to amino acids 1-169, produced at Accelegan Inc.); biotin (biotinylated); purchased Accelegan Inc
T3 sequence (P01116 1-169 isoform P01116-2 G12V): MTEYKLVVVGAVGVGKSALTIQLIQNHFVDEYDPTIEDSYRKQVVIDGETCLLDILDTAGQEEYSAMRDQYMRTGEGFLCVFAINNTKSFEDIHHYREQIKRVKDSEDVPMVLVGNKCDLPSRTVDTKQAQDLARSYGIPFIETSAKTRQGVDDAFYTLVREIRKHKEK

[1] = system: KRas-mediated phosphorylation of ERK in AsPC-1 cells; experiment: Inhibition of KRas-mediated phosphorylation of ERK (Cisbio HTRF pERK), AsPC-1 cells; type: cell-based; settings: Homo sapiens; for inhibition at 0.1 µM: ASPC1, 3 h, single point, 100 nM compound, 3 hrs, AsPC-1 cells; for IC50: ASPC1, AsPC-1 cells, HTRF pERK
In short: (§1)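 H358, H727, H460 and AsPC-1 cells seeded at 6,000/well, treated 3 hrs with 10-dose 3-fold dilutions from 10 uM (0.8% DMSO); 0.2 uM trametinib as min control. Lysed 40 min at 4° C; lysate incubated 2 hrs at room temperature with d2/cryptate antibodies, HTRF read.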

[2] = system: KRas-mediated phosphorylation of ERK in H727 cells; experiment: Inhibition of KRas-mediated phosphorylation of ERK (Cisbio HTRF pERK), H727 cells; type: cell-based; settings: Homo sapiens; for inhibition at 0.1 µM: NCI-H727, 3 h, single point, 100 nM compound, 3 hrs, H727 cells; for IC50: NCI-H727, H727 cells, HTRF pERK
In short: as §1

[3] = system: KRas-mediated phosphorylation of ERK in A549 cells; experiment: Inhibition of KRas-mediated phosphorylation of ERK (Cisbio HTRF pERK), A549 cells; type: cell-based; settings: Homo sapiens; for inhibition at 0.1 µM: A549, 3 h, single point, 100 nM compound, 3 hrs
In short: (§2)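 A cell-based HTRF pERK assay: ten-point, threefold titrations beginning at 10 uM were applied for 3 hrs, with 0.2 uM Trametinib wells as the minimum control. Cells were lysed cold, and lysate was incubated with the antibody pair for 2 hrs before reading.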

[4] = system: KRas-mediated phosphorylation of ERK in H460 cells; experiment: Inhibition of KRas-mediated phosphorylation of ERK (Cisbio HTRF pERK), H460 cells; type: cell-based; settings: Homo sapiens; for inhibition at 0.1 µM: NCI-H460, 3 h, single point, 100 nM compound, 3 hrs
In short: as §1

[5] = system: KRas-mediated phosphorylation of ERK in HCT116 cells; experiment: Inhibition of KRas-mediated phosphorylation of ERK (Cisbio HTRF pERK), HCT116 cells; type: cell-based; settings: Homo sapiens; for inhibition at 0.1 µM: HCT-116, 3 h, single point, 100 nM compound, 3 hrs
In short: as §2

[6] = system: KRas-mediated phosphorylation of ERK in H358 cells; experiment: Inhibition of KRas-mediated phosphorylation of ERK (Cisbio HTRF pERK), H358 cells; type: cell-based; settings: Homo sapiens; for inhibition at 0.1 µM: NCI-H358, 3 h, single point, 100 nM compound, 3 hrs
In short: as §1

T1 sequence (P01116 1-169 isoform P01116-2 G12D): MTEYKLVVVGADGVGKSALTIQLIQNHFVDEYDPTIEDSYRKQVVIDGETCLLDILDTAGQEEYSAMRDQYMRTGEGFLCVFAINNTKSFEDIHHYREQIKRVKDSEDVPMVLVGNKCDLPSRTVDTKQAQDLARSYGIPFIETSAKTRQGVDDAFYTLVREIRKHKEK

SMILES	IC50 (KRas^G12D) [nM]	IC50 (KRas^G12R) [nM]	IC50 (KRas^G12V) [nM]	IC50 [1] [nM]	IC50 [2] [nM]	IC50 ([3]; HTRF pERK) [nM]	IC50 ([4]; NCI-H460, HTRF pERK) [nM]	IC50 ([5]; HCT-116, HTRF pERK) [nM]	IC50 ([6]; NCI-H358, HTRF pERK) [nM]	inhibition at 0.1 µM [1] [%]	inhibition at 0.1 µM [2] [%]	inhibition at 0.1 µM [3] [%]	inhibition at 0.1 µM [4] [%]	inhibition at 0.1 µM [5] [%]	inhibition at 0.1 µM [6] [%]
CCc1c(F)ccc2c(F)c(O)cc(-c3ncc4c(N5C[C@@H]6C[C@H](C5)[C@H](O)C6)nc(OC[C@@]56CCCN5C[C@H](F)C6)nc4c3F)c12 [Example 778, (1R,5R,6R)-3-(7-(8-ethyl-4,7-difluoro-3-hydroxynaphthalen-1-yl)-8-fluoro-2-(((2R,7aS)-2-fluorohexahydro-1H-pyrrolizin-7a-yl)methoxy)pyrido[4,3-d]pyrimidin-4-yl)-3-azabicyclo[3.2.1]octan-6-ol]	6	4	< 2	84	45	–	–	–	–	16	36	69	74	49	64
Cc1c(O)cc2ccccc2c1-c1ncc2c(N3C[C@@H]4C[C@H](C3)[C@H](O)C4)nc(OC[C@@]34CCCN3C[C@H](F)C4)nc2c1F [Example 786, (1R,5R,6R)-3-(8-fluoro-2-(((2R,7aS)-2-fluorohexahydro-1H-pyrrolizin-7a-yl)methoxy)-7-(3-hydroxy-2-methylnaphthalen-1-yl)pyrido[4,3-d]pyrimidin-4-yl)-3-azabicyclo[3.2.1]octan-6-ol]	423	160	110	4960	2820	–	–	–	–	1	15	19	8	0	-3

Second part, led by results:

IC50 (KRas^G12D) [nM]	IC50 (KRas^G12R) [nM]	IC50 (KRas^G12V) [nM]	IC50 [1] [nM]	IC50 [2] [nM]	IC50 ([3]; HTRF pERK) [nM]	IC50 ([4]; NCI-H460, HTRF pERK) [nM]	IC50 ([5]; HCT-116, HTRF pERK) [nM]	IC50 ([6]; NCI-H358, HTRF pERK) [nM]	SMILES	inhibition at 0.1 µM [1] [%]	inhibition at 0.1 µM [2] [%]	inhibition at 0.1 µM [3] [%]	inhibition at 0.1 µM [4] [%]	inhibition at 0.1 µM [5] [%]	inhibition at 0.1 µM [6] [%]
1300	787	435	–	> 10000	–	–	–	–	CCc1c(F)ccc2cc(O)cc(-c3ncc4c(N5Cc6n[nH]c(CO)c6C5)nc(OC[C@@]56CCCN5C[C@H](F)C6)nc4c3F)c12 [Example 785, 5-ethyl-6-fluoro-4-(8-fluoro-2-(((2R,7aS)-2-fluorohexahydro-1H-pyrrolizin-7a-yl)methoxy)-4-(3-(hydroxymethyl)pyrrolo[3,4-c]pyrazol-5 (2H,4H,6H)-yl)pyrido[4,3-d]pyrimidin-7-yl)naphthalen-2-ol]	-6	2	8	0	5	9
4	6	3	1670	2080	–	–	–	–	CCc1c(F)ccc2cc(O)cc(-c3ncc4c(N5CCC[C@@](C)(O)C5)nc(OC[C@]56CCCN5[C@@H](CNS(=O)(=O)N(C)C)CC6)nc4c3F)c12 [Example 787, (R)-1-(7-(8-ethyl-7-fluoro-3-hydroxynaphthalen-1-yl)-8-fluoro-2-(((3R,7aR)-3-(((dimethylsulfamoyl)amino)methyl)tetrahydro-1H-pyrrolizin-7a(5H)-yl)methoxy)pyrido[4,3-d]pyrimidin-4-yl)-3-methylpiperidin-3-ol]	23	33	14	11	9	8
36	9	12	1210	932	397	159	475	264	CCc1c(F)ccc2cc(O)cc(-c3ncc4c(N5CCCC6(CC6C#N)C5)nc(OC[C@@]56CCCN5C[C@H](F)C6)nc4c3F)c12 (stereo partly drawn) [Example 851, 5-(7-(8-ethyl-7-fluoro-3-hydroxynaphthalen-1-yl)-8-fluoro-2-(((2R,7aS)-2-fluorotetrahydro-1H-pyrrolizin-7a(5H)-yl)methoxy)pyrido[4,3-d]pyrimidin-4-yl)-5-azaspiro[2.5]octane-1-carbonitrile]	–	–	–	–	–	–
